These results are taken from publication PMC5218591 (Bioorganic & medicinal chemistry, 2016).

Molecules are shown by their SMILES.

The target of the experiment is GPR88 (Homo sapiens, UniProt Q9GZN0). Particulars: for fold less potent than 3: versus 3; for agonist activity at GPR88 (in words): purified compounds, Lance cAMP assay.
GPR88, sequence (Q9GZN0 whole entry, species assumed): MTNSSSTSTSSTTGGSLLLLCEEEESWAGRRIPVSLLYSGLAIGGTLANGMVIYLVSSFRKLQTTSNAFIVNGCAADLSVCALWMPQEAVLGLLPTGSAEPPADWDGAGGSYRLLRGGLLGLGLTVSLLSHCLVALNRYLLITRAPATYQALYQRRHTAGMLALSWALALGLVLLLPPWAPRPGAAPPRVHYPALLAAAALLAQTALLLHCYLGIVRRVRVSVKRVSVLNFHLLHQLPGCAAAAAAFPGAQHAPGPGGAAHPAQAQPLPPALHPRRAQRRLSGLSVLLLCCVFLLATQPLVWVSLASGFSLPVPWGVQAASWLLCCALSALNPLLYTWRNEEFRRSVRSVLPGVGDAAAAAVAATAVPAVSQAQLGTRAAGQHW

For `CCCC(C)COc1ccc([C@@H](NC(=O)[C@H](C)c2ccccc2)C(=O)OC)cc1` (some centres unmarked) [Compound 13az], the “agonist activity as percentage of TR-FRET signal of the control compound 11a” value (library screen at 1 μM final, crude compounds, 11a = 100%, Figure 2) is recorded as “less potent than the (S)-isomer”.

`CCCC(C)COc1ccc([C@H](CO)NC(=O)Cc2ccccc2)cc1` (stereo partly drawn) [Compound 12a, N-{(1R)-2-Hydroxy-1-[4-(2-methylpentyloxy)phenyl]ethyl}-2-phenylacetamide]: the “fold less potent than 3” value is on record as “approximately 2 fold”.

As for `CCCC(C)COc1ccc([C@@H](NC(=O)[C@@H](CC)c2ccccc2)C(=O)OC)cc1` (stereo partly drawn) [Compound 13aw, Methyl (2R)-2-[4-(2-methylpentyloxy)phenyl]-2-[(S)-2-phenylbutanamido]acetate], the “agonist activity at GPR88 (in words)” value is “equipotent with 11a”. Moreover, where the note is “versus 13a”, the “fold more potent than 13a” value amounted to 4.5 fold.

Take `CCCC(C)COc1ccc([C@@H](NC(=O)[C@@H](C)c2ccccc2)C(=O)O)cc1` (stereo partly drawn) [Compound 11b, (2R)-2-[4-(2-Methylpentyloxy)phenyl]-2-[(S)-2-phenylpropanamido]acetic acid]: the “agonist activity at GPR88 (in words)” value is “completely inactive”.

As for `CCCC(C)COc1ccc([C@@H](NC(=O)[C@@H](C)c2ccccc2)C(=O)OC)cc1` (stereo partly drawn) [Compound 11a, Methyl (2R)-2-[4-(2-methylpentyloxy)phenyl]-2-[(S)-2-phenylpropanamido]acetate], the “fold less potent than 3” value is on record as “approximately 2.5 fold”.

On to `CCCC(C)COc1ccc([C@@H](NC(=O)Cc2ccccc2)C(=O)OC)cc1` (stereo partly drawn) [Compound 13a, Methyl (2R)-2-[4-(2-methylpentyloxy)phenyl]-2-(2-phenylacetamido)acetate], for which the “fold less potent than 11a” value (versus 11a) is on record as 5 fold.

Regarding `CCCC(C)COc1ccc([C@@H](NC(=O)C(C)C2CCCCC2)C(=O)OC)cc1` (stereo partly drawn) [Compound 12d, Methyl (2R)-2-[4-(2-methylpentyloxy)phenyl]-2-[(R,S)-2-cyclohexylpropanamido]-acetate], the “agonist activity at GPR88 (in words)” value is “completely inactive”.
